These results are taken from patent publication US20240043440A1, “COMPOSITIONS AND METHODS OF MODULATING SHORT-CHAIN DEHYDROGENASE ACTIVITY” (CASE WESTERN RESERVE UNIVERSITY, priority 2017, published 2024).

Where only a bound is given, the exact number is not on record here.

Sequence of recombinant 15-PGDH (P15428 whole entry): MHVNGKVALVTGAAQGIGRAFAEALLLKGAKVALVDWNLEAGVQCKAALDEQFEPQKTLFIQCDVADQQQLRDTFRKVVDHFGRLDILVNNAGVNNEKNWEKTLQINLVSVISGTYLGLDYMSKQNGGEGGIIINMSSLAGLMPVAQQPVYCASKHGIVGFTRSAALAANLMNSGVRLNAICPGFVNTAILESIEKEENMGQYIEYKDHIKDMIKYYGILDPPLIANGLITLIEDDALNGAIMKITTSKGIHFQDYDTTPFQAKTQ

Tested on in the first series: not listed separately
Kind of series: metabolic stability in mouse liver microsomes. Conditions: LC-MS, FIGS. 2 and 3. It counts as in vitro ADME. Here is the method:
The metabolic stability was determined by incubating the compounds at a concentration of 10 μM in the presence of microsomes derived from mouse livers. Compound concentrations were monitored by HPLC/MS over time, and half-lives were calculated from the slope of the best-fit line for Ln[compound] vs time.
Metabolite M8 is a thioamide resulting from oxidative cleavage of the thiazole ring. By contrast, 6 membered ring heteroaryls cannot form this metabolite or the toxic byproducts.
On to `CCCC[S+]([O-])c1sc2nc(-c3nccs3)cc(-c3cnc(C)n3C)c2c1N` (centres unmarked) [2-(butylsulfinyl)-4-(1,2-dimethyl-1H-imidazol-5-yl)-6-(thiazol-2-yl)thieno[2,3-b]pyridin-3-amine], for which the “metabolites formed on incubation with mouse liver microsomes” value was “formation of metabolites derived from oxidation of the thiazole”.

The next series deals with IL1-β treated A549 cells. The series is described as follows: induction of PGE2 from IL1-β treated A549 cells. The series is classed as cell-based. Conditions: Homo sapiens; A549 cells stimulated with IL1-β for 24 hours.
In turn, `CCCC[S+]([O-])c1sc2nc(-c3cnc(N)nc3)cc(-c3ccccc3)c2c1N` (centres unmarked) gave a 50% effective concentration (EC50) of less than 4 nM.

A further series addresses recombinant 15-PGDH (Homo sapiens (Human), UniProt P15428). The series is described as follows: inhibition of enzymatic activity of recombinant 15-PGDH, in vitro assay. It counts as biochemical. Conditions: Enzyme Inhibitor IC50 (nM) at 1 nM 15-PGDH, 1 nM recombinant 15-PGDH. An excerpt: This Example provides data on a group of structural analogues of SW033291. Data provided is the IC50 of each compound for inhibiting enzymatic activity of recombinant 15-PGDH in an in vitro assay. Recombinant 15-PGDH is human unless otherwise specified. Additionally, the example provides aqueous solubility data for selected analogues in pH 7 or pH 4 citrate buffer solution.
As for `CCCC[S+]([O-])c1sc2nc(-c3cccnc3)nc(-c3ccccc3)c2c1N` (single isomer, unassigned) [74A, 6-(butylsulfinyl)-4-phenyl-2-(pyridin-3-yl)thieno[2,3-d]pyrimidin-5-amine], the IC50 came to 0.52 nM. Consider `CCCC[S+]([O-])c1sc2nc(-c3cccnc3)nc(-c3ccccc3)c2c1N` (single isomer, unassigned) [74B, 6-(butylsulfinyl)-4-phenyl-2-(pyridin-3-yl)thieno[2,3-d]pyrimidin-5-amine], for which the half-maximal inhibitory concentration (IC50) amounted to 28 nM.

Still in this series, the particulars now being: Enzyme Inhibitor IC50 (nM) at 5 nM 15-PGDH, 5 nM recombinant 15-PGDH.
As for `CCCC[S+]([O-])c1sc2nc(-c3ccc(OC)nc3)cc(-c3ccccc3)c2c1N` (centres unmarked) [compound 23], the half-maximal inhibitory concentration (IC50) fell in the range of 4 to 20 nM. With `CCCC[S+]([O-])c1sc2nc(C3CC3)cc(-c3ccccc3)c2c1N` (centres unmarked) [compound 25], the half-maximal inhibitory concentration (IC50) lay in the range of 4 to 20 nM.

The same series, now with this note: read-out: Enzyme Inhibitor IC50 (nM) at 1 nM 15-PGDH; 1 nM recombinant 15-PGDH.
`CCCC[S@@+]([O-])c1sc2nc(-c3cccnc3)cc(-c3cnc(C)n3C)c2c1N` [38A]: the IC50 came out at 0.76 nM.

In the case of `CCCC[S@+]([O-])c1sc2nc(-c3cccnc3)cc(-c3cnc(C)n3C)c2c1N` [38B], the IC50 was 27 nM. Still for that read-out and setting: then `CCCC[S@@+]([O-])c1sc2nc(-c3cncnc3)cc(-c3cnc(C)n3C)c2c1N` [39A], with 0.72 nM.

`CCCC[S@+]([O-])c1sc2nc(-c3cncnc3)cc(-c3cnc(C)n3C)c2c1N` [39B]: the IC50 is greater than 100 nM. Same read-out and setting: then `CCCC[S@@+]([O-])c1sc2nc(-c3cccnc3)cc(-c3ccccc3)c2c1N` [41A], with 0.73 nM; and `CCCC[S@+]([O-])c1sc2nc(-c3cccnc3)cc(-c3ccccc3)c2c1N` [41B], with 27 nM; and `CCCC[S@+]([O-])c1sc2nc(-c3cncnc3)cc(-c3ccccc3)c2c1N` [42A], with 30 nM.

As to `CCCC[S@@+]([O-])c1sc2nc(-c3cncnc3)cc(-c3ccccc3)c2c1N` [42B], the IC50 is 0.59 nM. Take `CCCC[S@@+]([O-])c1sc2nc(-c3cccnc3)cc(-c3cncn3C)c2c1N` [43A]: the concentration for half-maximal inhibition (IC50) is 0.58 nM.

`CCCC[S@+]([O-])c1sc2nc(-c3cccnc3)cc(-c3cncn3C)c2c1N` [43B]: the IC50 is greater than 100 nM. The same measure, in the same setting: as for `CCCC[S@@+]([O-])c1sc2nc(-c3cnn(C)c3)cc(-c3ccccc3)c2c1N` [46A], the figure is 0.7 nM. Regarding `CCCC[S@+]([O-])c1sc2nc(-c3cnn(C)c3)cc(-c3ccccc3)c2c1N` [46B], the IC50 was greater than 100 nM.

Take `CCCC[S@@+]([O-])c1sc2nc(-c3ccncn3)cc(-c3ccccc3)c2c1N` [47A]: the IC50 amounted to 0.65 nM. Same read-out and setting: as for `CCCC[S@+]([O-])c1sc2nc(-c3ccncn3)cc(-c3ccccc3)c2c1N` [47B], the figure is 79 nM; as for `CCCC[S@@+]([O-])c1sc2nc(-c3nccs3)cc(-c3cn(C)cn3)c2c1N` [48A], 0.72 nM. For the compound `CCCC[S@+]([O-])c1sc2nc(-c3nccs3)cc(-c3cn(C)cn3)c2c1N` [48B], the IC50 was greater than 100 nM. As for `COCCC[S@@+]([O-])c1sc2nc(-c3cccnc3)cc(-c3cncn3C)c2c1N` [50A], the IC50 stood at 0.57 nM. As to `COCCC[S@+]([O-])c1sc2nc(-c3cccnc3)cc(-c3cncn3C)c2c1N` [50B], the half-inhibitory concentration (IC50) is greater than 100 nM. The same measure, in the same setting: then `CCCC[S@@+]([O-])c1sc2nc(-c3cccnc3)cc(-c3cnc(C4CC4)n3C)c2c1N` [52A, (R)-2-(butylsulfinyl)-4-(2-cylcopropyl-1-methyl-1H-imidazol-5-yl)-6-(pyridine-3-yl)thieno[2,3-b]pyridine-3-amine], with 0.75 nM; and `CCCC[S@+]([O-])c1sc2nc(-c3cccnc3)cc(-c3nnc(C4CC4)n3C)c2c1N` [52B], with greater than 100 nM; and `CCCC[S@@+]([O-])c1sc2nc(-c3cccnc3)cc(-c3cccnc3)c2c1N` [54A], with 0.45 nM.

Turning to `CCCC[S@+]([O-])c1sc2nc(-c3cccnc3)cc(-c3cccnc3)c2c1N` [54B], the IC50 was greater than 100 nM. With `CCCC[S@@+]([O-])c1sc2nc(-c3cccnc3)cc(-c3ccccn3)c2c1N` [58A], the IC50 came out at 0.55 nM.

On to `CCCC[S@+]([O-])c1sc2nc(-c3cccnc3)cc(-c3ccccn3)c2c1N` [58B], for which the half-maximal inhibitory concentration (IC50) is 0.13 nM.

As for `CCCC[S@@+]([O-])c1sc2nc(-c3cnc(NC)nc3)cc(-c3ccccc3)c2c1N` [60A], the IC50 worked out at 0.5 nM. Regarding `CCCC[S@+]([O-])c1sc2nc(-c3cnc(NC)nc3)cc(-c3ccccc3)c2c1N` [60B], the 50% inhibitory concentration (IC50) worked out at 41 nM. `CCCC[S@@+]([O-])c1sc2nc(-c3cnc(N)nc3)cc(-c3ccc(F)cc3)c2c1N` [61A]: the half-maximal inhibitory concentration (IC50) worked out at 0.44 nM. On the same count and under the same terms, as for `CCCC[S@+]([O-])c1sc2nc(-c3cnc(N)nc3)cc(-c3ccc(F)cc3)c2c1N` [61B], the figure is 24 nM; as for `CCCC[S@@+]([O-])c1sc2nc(-c3ccc(N)nc3)cc(-c3ccccc3)c2c1N` [62A], 0.56 nM. Regarding `CCCC[S@+]([O-])c1sc2nc(-c3ccc(N)nc3)cc(-c3ccccc3)c2c1N` [62B], the IC50 is 64 nM. Same read-out and setting: as for `CCCC[S@@+]([O-])c1sc2nc(-c3cnc(N)nc3)cc(-c3ccccc3)c2c1N` [64A], the figure is 0.36 nM; as for `CCCC[S@+]([O-])c1sc2nc(-c3cnc(N)nc3)cc(-c3ccccc3)c2c1N` [64B], greater than 100 nM; as for `COCCC[S@@+]([O-])c1sc2nc(-c3cnc(N)nc3)cc(-c3ccccc3)c2c1N` [65A], 0.59 nM.

For the compound `COCCC[S@+]([O-])c1sc2nc(-c3cnc(N)nc3)cc(-c3ccccc3)c2c1N` [65B], the half-maximal inhibitory concentration (IC50) amounted to 30 nM. As for `COCCC[S@@+]([O-])c1sc2nc(-c3cccnc3)cc(-c3ccccc3)c2c1N` [68A], the half-inhibitory concentration (IC50) was 0.48 nM. For the compound `COCCC[S@+]([O-])c1sc2nc(-c3cccnc3)cc(-c3ccccc3)c2c1N` [68B], the IC50 is greater than 100 nM. In the case of `COCCC[S@@+]([O-])c1sc2nc(-c3cccnc3)cc(-c3cn(C)cn3)c2c1N` [89A], the half-inhibitory concentration (IC50) came to 0.77 nM. For `COCCC[S@+]([O-])c1sc2nc(-c3cccnc3)cc(-c3cn(C)cn3)c2c1N` [89B], the IC50 was 74 nM.

The same series, now with this note: read-out: Enzyme Inhibitor IC50 (nM) at 5 nM 15-PGDH; 5 nM recombinant 15-PGDH.
Take `CCCC[S@+]([O-])c1sc2nc(-c3nccs3)cc(-c3cn(C)c(C)n3)c2c1N` (stereo in doubt) [compound 3, 2-(butylsulfinyl)-4-(1,2-dimethyl-1H-imidazol-4-yl)-6-(thiazol-2-yl)thieno[2,3-b]pyridin-3-amine]: the IC50 is greater than 500 nM. Still for that read-out and setting: then `CCCC[S@@+]([O-])c1sc2nc(-c3nccs3)cc(-c3cn(C)c(C)n3)c2c1N` (stereo in doubt) [compound 4, 2-(butylsulfinyl)-4-(1,2-dimethyl-1H-imidazol-4-yl)-6-(thiazol-2-yl)thieno[2,3-b]pyridin-3-amine], with 1.4 nM; and `CCCC[S+]([O-])c1sc2nc(-c3nccs3)cc(-c3cn(C)c(C)n3)c2c1N` (centres unmarked) [compound 2, 2-(butylsulfinyl)-4-(1,2-dimethyl-1H-imidazol-4-yl)-6-(thiazol-2-yl)thieno[2,3-b]pyridin-3-amine], with 2.3 nM.

Regarding `CCCC[S+]([O-])c1sc2nc(-c3nccs3)cc3c2c1Nc1ncncc1-3` (centres unmarked) [compound 6, 5-(butylsulfinyl)-2-(thiazol-2-yl)-6H-pyrimido[4,5-c]thieno[2,3,4-ij][2,7]naphthyridine], the IC50 was 86 nM. On to `CCCC[S+]([O-])c1sc2nc(-c3nccs3)cc3c4c(nc1c23)NC=NC=4` (centres unmarked) [compound 7, 5-(butylsulfinyl)-2-(thiazol-2-yl)-7H-pyrimido[4,5-c]thieno[2,3,4-ij][2,7]naphthyridine], for which the IC50 amounted to 132 nM.

Tested on in the next series: not listed separately
The series is described as follows: chemical stability of the isolated product. It counts as physicochemical. The note with it: cyclizes completely during 10 days to Examples 6 and 7. The source says: Rather, it cyclized and oxidized as described below.
The desired product 2-(butylsulfinyl)-4-(pyrimidin-5-yl)-6-(thiazol-2-yl)thieno[2,3-b]pyridin-3-amine (Example 5-4) is unstable and cyclizes completely during 10 days to Example 6, (5-(butylsulfinyl)-2-(thiazol-2-yl)-6H-pyrimido[4,5-c]thieno[2,3,4-ij][2,7]naphthyridine) and Example 7, (5-(butylsulfinyl)-2-(thiazol-2-yl)-7H-pyrimido[4,5-c]thieno[2,3,4-ij][2,7]naphthyridine) with Example 6 being the major product. The cyclized products are separable on preparative HPLC: 21.2×250 mm Kinetex 5 μm EVO C18 100 Å reversed phase column using a 2:1 ratio of water to CH3CN with a 10 mL/min flow rate and 100 μL injection volume.
Take `CCCC[S+]([O-])c1sc2nc(-c3nccs3)cc(-c3cncnc3)c2c1N` (centres unmarked) [Example 5-4, 2-(butylsulfinyl)-4-(pyrimidin-5-yl)-6-(thiazol-2-yl)thieno[2,3-b]pyridin-3-amine]: the “stability of the compound” value is given as “unstable”.
